Reference: patent publication US20090036547A1 (priority 2005, published 2009)

Assays:
[1] = system: Aedes albopictus (susceptible) Albo larvae; assay: WHO standard larval bioassay; format: in vivo; conditions: Example 2, Ae. albopictus Susceptible, 10% working dilution in ethanol (mixture 5%+5%), 24 hours
[2] = system: Anopheles gambiae (DDT resistant) ZANDS larvae; assay: WHO standard larval bioassay; format: in vivo; conditions: Example 2, An. Gambiae DDT Resistant, 10% working dilution in ethanol (mixture 5%+5%), 24 hours
[3] = system: Anopheles stephensi (Organophosphate Resistant) ST Mal larvae; assay: WHO standard larval bioassay; format: in vivo; conditions: Example 2, An. Stephensi OP Resistant, 10% working dilution in ethanol (mixture 5%+5%), 24 hours
[4] = system: Anopheles stephensi (susceptible) Beech larvae; assay: WHO standard larval bioassay; format: in vivo; conditions: Example 2, An. Stephensi Susceptible, 10% working dilution in ethanol (mixture 5%+5%), 24 hours
[5] = system: Culex quinquefasciatus (susceptible) Muheza larvae; assay: WHO standard larval bioassay; format: in vivo; conditions: Example 2, Cx. quinquefasciatus Susceptible, 10% working dilution in ethanol (mixture 5%+5%), 24 hours
[6] = system: Aedes aegypti (susceptible) AeAe larvae; assay: WHO standard larval bioassay; format: in vivo; conditions: Example 2, Ae. Aegypti Susceptible, 10% working dilution in ethanol (mixture 5%+5%), 24 hours
[7] = system: Culex pipiens pipiens (susceptible) Pip larvae; assay: WHO standard larval bioassay; format: in vivo; conditions: Example 2, Cx. pipiens Susceptible, 10% working dilution in ethanol (mixture 5%+5%), 24 hours
[8] = system: range of mosquito species (larvae); assay: WHO standard larval bioassay, summary over all strains; format: in vivo, Anopheles, Aedes, Culex; conditions: Example 2, LD90 similar in susceptible and resistant strains
[9] = system: Anopheles gambiae (Pyrethroid Resistant) VKPR larvae; assay: WHO standard larval bioassay; format: in vivo; conditions: Example 2, An. Gambiae Py. Resistant, 10% working dilution in ethanol (mixture 5%+5%), 24 hours
[10] = system: Anopheles gambiae (susceptible) KWA larvae; assay: WHO standard larval bioassay; format: in vivo; conditions: Example 2, An. Gambiae Susceptible, 10% working dilution in ethanol (mixture 5%+5%), 24 hours
[11] = system: Anopheles albimanus (Carbamate Resistant) FEST larvae; assay: WHO standard larval bioassay; format: in vivo; conditions: Example 2, An. albimanus Carbamate Resistant, 10% working dilution in ethanol (mixture 5%+5%), 24 hours
[12] = system: Anopheles albimanus (susceptible) Mexico larvae; assay: WHO standard larval bioassay; format: in vivo; conditions: Example 2, An. Albimanus Susceptible, 10% working dilution in ethanol (mixture 5%+5%), 24 hours

SMILES	LD90 [1] [mL]	LD90 [2] [mL]	LD90 [3] [mL]	LD90 [4] [mL]	LD90 [5] [mL]	LD90 [6] [mL]	LD90 [7] [mL]	cross resistance to existing insecticide classes (pyrethroids/OP's/Carbamates/Organochlorines) [8]	LD90 [9] [mL]	LD90 [10] [mL]	LD90 [11] [mL]	LD90 [12] [mL]
Cc1ccc(C(C)C)c(O)c1 [Thymol]	0.172	0.235	0.177	0.112	0.330	0.302	0.135	no evidence of cross resistance	0.261	0.177	0.224	0.115
Cc1ccc(C(C)C)cc1 [p-Cymene, p-cymene]	0.150	0.204	0.134	0.085	0.215	0.198	0.120	no evidence of cross resistance	0.202	0.140	0.191	0.088
